These results are taken from patent US8710068B2, “Method of treating cancer using a survivin inhibitor” (The Trustees Of The University Of Pennsylvania, priority 2009, dated 2014).

The subject of experiment [1] is AsPC1 pancreatic cancer cells. The experiment can be described thus: MTT tumor cell proliferation assay, AsPC1. It is filed as cell-based, human. The settings on record: AsPC1, 5, 10, 20, or 50 μg/ml for 48 hours. The method, then: FIG. 3 illustrates the effect of S2 and its analogs on tumor cell proliferation. Cells were treated with DMSO or Survivin targeting molecules at the indicated concentration for 48 hours. The percentage of viable cells was evaluated by MTT assay. (A) AsPC1; (B) HeLa; (C) SKBR3; (D) DAOY.
FIG. 18 illustrates the effect of SBDO3, SN2, or SDC1 on tumor cell proliferation. (A) AsPC1 cells were treated with DMSO or the Survivin targeting molecules SBDO3 or SN2 at the indicated concentration for 48 hours. (B) SKBR3 cells were treated with DMSO or SDC1 for 48 hours. The percentage of viable cells was evaluated by MTT assay.
S2 and its analogs (S10, S11, S12, and S13) were tested for the ability to inhibit tumor cell proliferation by MTT assay. The AsPC1 pancreatic cancer cells were treated with DMSO, a control molecule SC2, or the Survivin-targeting compounds at the concentration of 5, 10, 20, or 50 μg/ml for 48 hours. The number of viable cells was evaluated by MTT.
SBDO3, SN2 and SDC1 were tested for the ability to inhibit tumor cell proliferation by MTT assay. The AsPC1 pancreatic cancer cells were treated with DMSO or the Survivin-targeting compounds at the concentration of 5, 10, 20, or 50 μg/ml for 48 hours. The number of viable cells was evaluated by MTT.

The target of experiment [2] is T1, Sur-F86A (Homo sapiens, UniProt O15392, F86A).
T1 construct: made in house; host or cells: bacteria
The experiment can be described thus: ITC binding to Survivin mutant F86A. The settings on record: in words. The method, then: FIG. 5 illustrates an analysis of S12-Survivin binding with isothermal titration calorimetry (ITC). Single-site point mutagenesis was performed to create the Survivin mutants F86A and V89Y. The native and the mutant proteins were produced and purified from bacteria.
In order to examine the specificity of the binding, we generated point mutations on the Survivin protein at the site presumably targeted by S12. The two mutations were substitutions of phenylalanine 86 with alanine (F86A) and valine 89 with tyrosine (V89Y). These two altered sites are also adjacent to the interface involved in dimerization of the Survivin protein. Based on structural analyses, we predict that alterations of either of these two amino acid residues may abolish the binding of S12 without affecting the overall structure of the Survivin protein.

T1 sequence (O15392 whole entry F86A): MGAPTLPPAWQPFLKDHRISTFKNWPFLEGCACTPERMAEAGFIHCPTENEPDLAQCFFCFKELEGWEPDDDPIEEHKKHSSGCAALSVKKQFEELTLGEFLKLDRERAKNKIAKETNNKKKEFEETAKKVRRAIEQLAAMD

As for `O=C(CC1(O)C(=O)Nc2ccc(Br)cc21)c1ccc2c(c1)OCO2` (centres unmarked) [S12], the “inhibition of cell proliferation / cell viability” value in experiment [1] is “can inhibit cell proliferation and reduce cell viability in a dose-dependent manner”. The “binding to mutant Sur-F86A” value in experiment [2] was “did not bind”.
